These results are taken from ChEMBL document CHEMBL4354856, “Discovery of 4,6-O-Thenylidene-β-d-glucopyranoside-(2″-acetamido, 3″-acetyl-di-S-5-fluorobenzothizole/5-fluorobenzoxazole)-4'-demethylepipodophyllotoxin as Potential Less Toxic Antitumor Candidate Drugs by Reducing DNA Damage and Less Inhibition of PI3K” (J Med Chem, 2020).

For one assay, the system named is HMEC. Kind of assay: Cytotoxicity against human HMEC cells assessed as inhibition of cell proliferation measured after 48 hrs by MTT assay. The assay is classed as cell-based. A general note: Tetrazolium assays rely on reduction of a dye to a coloured formazan, in cell work by metabolically active cells.
Another assay concerns MCF7. Description: Anticancer activity against human MCF7 cells assessed as inhibition of cell proliferation measured after 48 hrs by MTT assay. Type of assay: functional, cell-based. The conditions noted are these: MCF7, 48 h.
Another assay relates to MRC5. Kind of assay: Cytotoxicity against human MRC5 cells assessed as inhibition of cell proliferation measured after 48 hrs by MTT assay. The assay is classed as cell-based. The conditions noted are these: MRC5, 48 h.
Another assay deals with L02. Kind of assay: Cytotoxicity against human HL7702 cells assessed as inhibition of cell proliferation measured after 48 hrs by MTT assay. Type of assay: cell-based. The conditions noted are these: L02, 48 h.
A further assay concerns HepG2. Kind of assay: Anticancer activity against human HepG2 cells assessed as inhibition of cell proliferation measured after 48 hrs by MTT assay. The conditions noted are these: HepG2, 48 h. The assay is classed as functional, cell-based.
The subject of a further assay is A549. Description: Anticancer activity against human A549 cells assessed as inhibition of cell proliferation measured after 48 hrs by MTT assay. Type of assay: functional, cell-based. The conditions noted are these: A549, 48 h.
The subject of the next assay is HeLa. Kind of assay: Anticancer activity against human HeLa cells assessed as inhibition of cell proliferation measured after 48 hrs by MTT assay. Type of assay: functional, cell-based.
A short description of assay [1]: Cytotoxicity against human H8 cells assessed as inhibition of cell proliferation measured after 48 hrs by MTT assay. Type of assay: cell-based.

Each structure is given as a SMILES string.

As a reminder, the IC50 is the concentration at which inhibition is half-maximal. For the compound `COc1cc([C@@H]2c3cc4c(cc3[C@@H](O[C@@H]3O[C@@H]5CO[C@@H](c6cccs6)O[C@H]5[C@H](O)[C@H]3OC(=O)CSc3nc5cc(F)ccc5o3)[C@H]3COC(=O)[C@H]23)OCO4)cc(OC)c1O`, the IC50 turned out to be 14.3 µM in the assay on HMEC; 4 µM with MCF7; 15.8 µM in the assay with MRC5; 17.3 µM in the assay with L02; 1.7 µM with HepG2; 2.7 µM in the assay on A549. In addition, the IC50 in the assay on HeLa worked out at 1 µM; in assay [1], 21.3 µM.

As for `COc1cc([C@@H]2c3cc4c(cc3[C@@H](O[C@@H]3O[C@@H]5CO[C@@H](c6cccs6)O[C@H]5[C@H](OC(=O)CSc5nc6cc(F)ccc6s5)[C@H]3OC(=O)CSc3nc5cc(F)ccc5s3)[C@H]3COC(=O)[C@H]23)OCO4)cc(OC)c1O`, the IC50 in the assay with HMEC turned out to be 24.6 µM; with MCF7, 151 µM; in the assay with MRC5 it was 25.6 µM; with L02 it was 22.1 µM; in the assay on HepG2 it was 38.4 µM; in the assay on A549, 118 µM. Further, the results for the IC50 (with HeLa; in assay [1]) were 172 µM and 20.3 µM, respectively.

For the compound `COc1cc([C@@H]2c3cc4c(cc3[C@@H](O[C@@H]3O[C@@H]5CO[C@@H](c6cccs6)O[C@H]5[C@H](OC(=O)CSc5nc6cc(F)ccc6s5)[C@H]3O)[C@H]3COC(=O)[C@H]23)OCO4)cc(OC)c1O`, the 50% inhibitory concentration (IC50) is 14.3 µM with HMEC; 5.6 µM in the assay with MCF7; 14.3 µM with MRC5; 16.4 µM in the assay on L02; 2.7 µM in the assay with HepG2; 3.5 µM in the assay with A549. In addition, the IC50 in the assay with HeLa is 2.5 µM; in assay [1], 17.4 µM.

On to `COc1cc([C@@H]2c3cc4c(cc3[C@@H](O[C@@H]3O[C@@H]5CO[C@@H](c6cccs6)O[C@H]5[C@H](O)[C@H]3OC(=O)CSc3nc5cc(F)ccc5s3)[C@H]3COC(=O)[C@H]23)OCO4)cc(OC)c1O`, for which the IC50 amounted to 13.5 µM in the assay with HMEC; 3.9 µM with MCF7; 12.4 µM in the assay with MRC5; 18.5 µM in the assay on L02; 2 µM in the assay on HepG2; 1.1 µM with A549. For the same compound, the IC50 in the assay with HeLa turned out to be 1.5 µM; in assay [1] it was 22.5 µM.
